Reference: patent publication US20060004044A1, “3-glyoxylamideindoles for treating cancer” (Synta Pharmaceuticals Corp., priority 2001, published 2006)
pIC50: −log10 of the molar value.

Legend:
[1] = tested on: HL-60/TX1000 multi-drug resistant human myeloid leukemia cell line; test: In vitro anti-cancer activity against MDR cell line HL-60/TX1000; assay type: cell-based; conditions: for pIC50: Homo sapiens, HL-60/TX1000 cells, 72 hours, MTS
Protocol: (§1) The cell lines were maintained in RPM11640(GIBCO) supplemented with 10% FCS, 100 units/ml penicillin, 100 ug/ml streptomycin, and 2 mM L-glutamine. The cells were split every third day and diluted to a concentration of 2×10^5 cells/ml one day before experiment. All experiments were performed on exponentially growing cell culture. Cell densities were 2.5×10^4 cells/ml in all experiment.
(§2) A stock solution of Compound (1) was prepared by dissolving the compound at a concentration of 1 mM in 100% DMSO. Final concentrations were obtained by diluting the stock solution directly into the tissue culture medium. Cells were incubated with varying concentrations of compounds for 72 hours and the IC50 was determined by MTS (i.e. […]) assay. IC50 stands for the concentration of compound required to inhibit 50% tumor cell growth.
(§3) In vitro activity was determined in two MDR (Multi Drug Resistant) human cancer cell lines. HL-60/TX1000 was isolated in vitro by subculturing HL-60 in progressively higher concentration of Taxol. HL-60/TX1000 cells over-express mdr-1 mRNA and p-glycoprotein, as determined by western blot and immunofluorescence labeling with antiPGP antibodies. The cell is cross-resistant to Taxol, Vincristine, Adriamycin, Etoposide and Doxorubicin. MES-SA/Dx5 was established in the presence of increasing concentrations of Doxorubicin. […] MES-SA/Dx5 was purchased from ATCC.
(§4) The procedure for culturing the cells and assaying cancer cell growth inhibition were as described in Example 3.
(§5) The protocol described in Example 3 was used to assay inhibition by Compounds (2)-(10) on the growth of the multi-drug resistant cell lines MES-SA/DX5 and HL60/TX1000.

[2] = tested on: MES-SA/DX5 multi-drug resistant human uterine sarcoma cell line; test: In vitro anti-cancer activity against MDR cell line MES-SA/DX5; assay type: cell-based; conditions: for pIC50: MES-SA/DX5 cells, 72 hours, MTS
Protocol: as §1, §2, §3, §4, §5

[3] = tested on: MDA435 human breast tumor; test: Tumor growth inhibition assay, human breast tumor (MDA435) xenograft model, oral treatment; assay type: in vivo, nude mice; conditions: for body weight change / loss: nude mice with MDA435 tumors, oral, Compound (5) 25 mg/kg, Compound (3) 50 mg/kg; for tumor growth inhibition (FIG. 2): nude mice, 3 times a week for 3 weeks
[4] = tested on: MDA435 (human breast cancer); test: In vitro anti-cancer activity, MTS assay, MDA435; assay type: cell-based; conditions: MDA-435 cells, 72 hours
Protocol: (§6) The in vitro activity of the compounds was determined in the following […] human cancer cell lines. MDA435 (human breast cancer), HL-60 (human myeloid leukemia), DU-145 (human prostate cancer), MES-SA (human uterine sarcoma), H2 (human leukemia) were obtained from ATCC (American Type of Culture Collection).
as §1, §2

[5] = tested on: HL-60 (human myeloid leukemia); test: In vitro anti-cancer activity, MTS assay, HL-60; assay type: cell-based; conditions: HL-60 cells, 72 hours
Protocol: as §6, §1, §2

[6] = tested on: DU-145 (human prostate cancer); test: In vitro anti-cancer activity, MTS assay, DU-145; assay type: cell-based; conditions: DU-145 cells, 72 hours
Protocol: as §6, §1, §2

[7] = tested on: MES-SA (human uterine sarcoma); test: In vitro anti-cancer activity, MTS assay, MES-SA; assay type: cell-based; conditions: MES-SA cells, 72 hours
Protocol: as §6, §1, §2

H2 (human leukemia) = test: In vitro anti-cancer activity, MTS assay, H2; assay type: cell-based; conditions: H2 cells, 72 hours
Protocol: as §6, §1, §2

MCF-7 human breast tumor = test: Tumor growth inhibition assay, human breast tumor (MCF-7) xenograft model; assay type: in vivo, nude mice (CD-1 nu/nu); conditions: nude mice; for tumor growth inhibition (FIG. 1): 3 times a week for 3 weeks

N#Cc1ccc(Cn2cc(C(=O)C(=O)Nc3ccncc3)c3ccccc32)cc1 [(9)] showed a pIC50 ([1]; HL60/TX1000) of 7.30 and a pIC50 ([2]; Homo sapiens) of 7.30.

For NC(=O)c1ccc(NC(=O)C(=O)c2cn(Cc3ccc(Cl)cc3)c3ccccc23)cc1 [Compound (3)], the pIC50 ([1]; HL60/TX1000) was 7.30, the pIC50 ([2]; Homo sapiens) was 7.30 and the “body weight change / loss” value [3] was “without showing significant body weight loss”. For the same molecule, the “tumor growth inhibition (FIG. 2)” value ([3]; 50 mg/kg orally by gavage) was “significantly inhibit tumor growth”.

Work on O=C(Nc1ccon1)C(=O)c1cn(Cc2ccc(Cl)cc2)c2ccccc12 [(7)] yielded a pIC50 ([1]; HL60/TX1000) of 7.30 and a pIC50 ([2]; Homo sapiens) of 7.10.

Work on NC(=O)c1ccc(NC(=O)C(=O)c2cn(Cc3ccc(Cl)cc3)c3ccccc23)nc1 [(4)] yielded a pIC50 ([1]; HL60/TX1000) of 7.30 and a pIC50 ([2]; Homo sapiens) of 7.30.

For CN(c1ccccc1)n1cc(C(=O)C(=O)Nc2ccc3ncccc3c2)c2ccccc21 [(8)], the pIC50 ([1]; HL60/TX1000, 72 h) was 7.00 and the pIC50 ([2]; Homo sapiens, MES-SA/Dx5, 72 h) was 7.00.

With CSc1nnc(NC(=O)C(=O)c2cn(Cc3ccc(Cl)cc3)c3ccccc23)[nH]1 [(6)] the pIC50 ([1]; HL60/TX1000) was 7.30 and the pIC50 ([2]; Homo sapiens) was 7.30.

With Cc1cc(NC(=O)C(=O)c2cn(Cc3ccc(Cl)cc3)c3ccccc23)no1 [(10)] the pIC50 ([1]; HL60/TX1000) was 7.30 and the pIC50 ([2]; Homo sapiens) was 7.30.

With Cc1cc(NC(=O)C(=O)c2cn(Cc3ccc(Cl)cc3)c3ccccc23)sn1 [Compound (1), 2-(1-(4-Chloro-benzyl)-1-indol-3-yl)-N-(3-methyl-isothiazol-5-yl)-2-oxo-acetamide] the pIC50 [4] was 8.30, the pIC50 [5] was 8.30 and the pIC50 [6] was 8.30. For the same molecule, the pIC50 [7] was 8.30, the pIC50 (H2 (human leukemia)) was 8.30 and the “anti-cancer activity against MDR cancer cell lines (in words)” value ([1]; HL-60/TX1000) was “high anti-cancer activity”. The pIC50 ([1]; HL60/TX1000) was 8.00, the pIC50 ([2]; Homo sapiens) was 8.00 and the “anti-cancer activity against MDR cancer cell lines (in words)” value ([2]; MES-SA/DX5) was “high anti-cancer activity”. For the same molecule, the “tumor growth inhibition (FIG. 1)” value (MCF-7 human breast tumor; 7.5 mg/kg intravenously) was “significantly inhibits tumor growth”, the “tumor growth inhibition (FIG. 1)” value (MCF-7 human breast tumor; 10 mg/kg intravenously) was “significantly inhibits tumor growth” and the toxicity (MCF-7 human breast tumor; 7.5 and 10 mg/kg) was “acceptable toxicity”. The “reduction of volume of tumors” value (MCF-7 human breast tumor; intravenously every second day, 10 mg/kg) was “greater than 50%”.

Work on Cc1cc(NC(=O)C(=O)c2cn(Cc3ccc(C#N)cc3)c3ccccc23)sn1 [Compound (2)] yielded a pIC50 ([1]; HL60/TX1000) of 8.30 and a pIC50 ([2]; Homo sapiens) of 8.30.

Work on CC[C@]1(O)C[C@H]2CN(CCc3c([nH]c4ccccc34)[C@@](C(=O)OC)(c3cc4c(cc3OC)N(C=O)[C@H]3[C@@](O)(C(=O)OC)[C@H](OC(C)=O)[C@]5(CC)C=CCN6CC[C@]43[C@@H]65)C2)C1 [Vincristine, reference compound] yielded a pIC50 ([2]; Homo sapiens, MES-SA/Dx5, 72 h) of 5.30 to 6.00 and a pIC50 [2] of 6.00.

For O=C(Nc1ccc2ncccc2c1)C(=O)c1cn(Cc2ccc(Cl)cc2)c2ccccc12 [Compound (5)], the pIC50 ([1]; HL60/TX1000) was 7.30, the pIC50 ([2]; Homo sapiens) was 7.30 and the “body weight change / loss” value [3] was “without showing significant body weight loss”. The “tumor growth inhibition (FIG. 2)” value ([3]; 25 mg/kg orally by gavage) was “significantly inhibit tumor growth”.
